Patent US10300058B2, “Tyrosine kinase inhibitor and uses thereof” (Xuanzhu Pharma Co., Ltd., priority 2014, dated 2019)

Legend:
[1] = target: EGFR T790M (Homo sapiens (Human), UniProt P00533, T790M); experiment: Mobility Shift Assay, in vitro enzyme-inhibiting activity, EGFR T790M; type: biochemical; details: for IC50: Km ATP; for Selectivity (WT/T790M): ratio of IC50
Method: (§1) 1. Preparation of Reagents
(§2) 2. Preparation of a Compound Solution
(§3) (1) To the second well of a 96-well plate, 5 μL 10 mM compound (dissolved in DMSO) was added, and 95 μL 100% DMSO was added to prepare 100 μL 0.5 mM compound.
(§4) (2) To other wells, 60 μL 100% DMSO was added. 20 μL compound from the second well was added to the third well, and 4-fold dilution was further performed to get 10 diluted concentrations.
(§5) (3) To the first well and the twelfth well of the 96-well plate, 100 μL 100% DMSO was separately added, and the two wells were used as control wells.
(§6) (4) 10 μL from each well of the 96-well plate was added to another 96-well plate, and 90 μL 1-fold kinase buffer was added.
(§7) (5) 5 μL from the 96-well plate was added to another 384-well plate, for example, transferred from A1 well of the 96-well plate to A1 and A2 wells of the 384-well plate, and transferred from A2 well of the 96-well plate to A3 and A4 wells of the 384-well plate, and so on.
(§8) To 384-well plate, 10 μL 2.5-fold enzyme solution was added, and incubated at room temperature for 10 min.
(§9) (5) Kinase reaction and stop
(§10) After incubation at 28° C. for a period of time (depending on kinase), 25 μL stop solution was added.
(§11) 4. Data on percent conversion was read by Caliper.
(§12) (1) Data on enzyme activity was obtained by Caliper program;
(§13) (2) Inhibition rate of enzyme activity was calculated from the data on enzyme activity by the following formula: Inhibition rate(%)=(maximal value−the measured value of a test compound)/(maximal value-minimal value)×100,
(§14) wherein, the maximal value represents the measured value of DMSO control; and the minimal value represents the measured value of blank control.
(§15) (3) Calculation of IC50 value by XLFit excel.

[2] = target: EGFR L858R (Homo sapiens (Human), UniProt P00533, L858R); experiment: Mobility Shift Assay, in vitro enzyme-inhibiting activity, EGFR L858R; type: biochemical; details: for IC50: Km ATP; for Selectivity WT/L858R: ratio of IC50
Method: as §1, §2, §3, §4, §5, §6, §7, §8, §9, §10, §11, §12, §13, §14, §15

[3] = target: EGFR (d746-750) (Homo sapiens (Human), UniProt P00533, DEL746-750); experiment: Mobility Shift Assay, in vitro enzyme-inhibiting activity, EGFR (d746-750); type: biochemical; details: for IC50: Km ATP; for Selectivity WT/d746-750: ratio of IC50
Method: as §1, §2, §3, §4, §5, §6, §7, §8, §9, §10, §11, §12, §13, §14, §15

[4] = target: wild-type EGFR (WT EGFR) (Homo sapiens (Human), UniProt P00533); experiment: Mobility Shift Assay, in vitro enzyme-inhibiting activity, wild-type EGFR; type: biochemical; details: Km ATP
Method: as §1, §2, §3, §4, §5, §6, §7, §8, §9, §10, §11, §12, §13, §14, §15

[5] = target: EGFR T790M-L858R (Homo sapiens (Human), UniProt P00533, L858R/T790M); experiment: Mobility Shift Assay, in vitro enzyme-inhibiting activity, EGFR T790M-L858R; type: biochemical; details: for IC50: Km ATP; for Selectivity WT/T790M-L858R: ratio of IC50
Method: as §1, §2, §3, §4, §5, §6, §7, §8, §9, §10, §11, §12, §13, §14, §15

[6] = tested on: A431 cell (wild-type EGFR gene); experiment: In vitro cytologic activity, Celltiter-Glo, A431 cells; type: cell-based; details: Homo sapiens, A-431, 72 h, Table 10, unit inferred
Method: (§16) 1.1 Preparation of Cell Suspension
(§17) Culture medium was removed from culture bottle;
(§18) PBS was added to wash the cells; • pancreatin was added for digestion, and the cells were collected by centrifugation; • the cells were resuspended in a culture medium containing 10% fetal bovine serum, counted and adjusted to a concentration of 2×10^4/mL or 3×10^4/mL (cell viability must be greater than 90%); • the cell suspension was added to a 96-well plate, at 100 μL for each well, i.e., 2000/well for H1975 cell; 3000/well for A431 cell; and • the cells were cultured at 37° C. in 5% CO2 incubator overnight.
(§19) Dilution of a compound in DMSO (or water for injection) • (1) The compound was 5-fold diluted with DMSO from 10 mM to 2 mM, and then 4-fold diluted from 2 mM, to get 10 concentrations; • High control (HC, control without compound inhibition): 0.5% DMSO; • Low control (LC, control with compound inhibition): 1000 nM.
(§20) i. To each well, 99 μL growth medium containing 10% FBS was added, and then 1 μL diluted compound was added, the total volume of the well was […], and the final concentration of the compound was measured.
(§21) The test plate was left at room temperature, and equilibrated for 30 min. 80 μL culture medium was discarded. 60 μL CTG reagent (Celltiter-Glo kit) was added, and shaked for 2 min in a fast shaker, and was placed at room temperature for 10 min. The values were read by Envision instrument.

[7] = tested on: H1975 cell (EGFR-T790M/L858R double mutation); experiment: In vitro cytologic activity, Celltiter-Glo, H1975 cells; type: cell-based, human; details: Table 10
Method: as §16, §17, §18, §19, §20, §21

wild-type EGFR (WT EGFR), sequence (P00533 25-1210): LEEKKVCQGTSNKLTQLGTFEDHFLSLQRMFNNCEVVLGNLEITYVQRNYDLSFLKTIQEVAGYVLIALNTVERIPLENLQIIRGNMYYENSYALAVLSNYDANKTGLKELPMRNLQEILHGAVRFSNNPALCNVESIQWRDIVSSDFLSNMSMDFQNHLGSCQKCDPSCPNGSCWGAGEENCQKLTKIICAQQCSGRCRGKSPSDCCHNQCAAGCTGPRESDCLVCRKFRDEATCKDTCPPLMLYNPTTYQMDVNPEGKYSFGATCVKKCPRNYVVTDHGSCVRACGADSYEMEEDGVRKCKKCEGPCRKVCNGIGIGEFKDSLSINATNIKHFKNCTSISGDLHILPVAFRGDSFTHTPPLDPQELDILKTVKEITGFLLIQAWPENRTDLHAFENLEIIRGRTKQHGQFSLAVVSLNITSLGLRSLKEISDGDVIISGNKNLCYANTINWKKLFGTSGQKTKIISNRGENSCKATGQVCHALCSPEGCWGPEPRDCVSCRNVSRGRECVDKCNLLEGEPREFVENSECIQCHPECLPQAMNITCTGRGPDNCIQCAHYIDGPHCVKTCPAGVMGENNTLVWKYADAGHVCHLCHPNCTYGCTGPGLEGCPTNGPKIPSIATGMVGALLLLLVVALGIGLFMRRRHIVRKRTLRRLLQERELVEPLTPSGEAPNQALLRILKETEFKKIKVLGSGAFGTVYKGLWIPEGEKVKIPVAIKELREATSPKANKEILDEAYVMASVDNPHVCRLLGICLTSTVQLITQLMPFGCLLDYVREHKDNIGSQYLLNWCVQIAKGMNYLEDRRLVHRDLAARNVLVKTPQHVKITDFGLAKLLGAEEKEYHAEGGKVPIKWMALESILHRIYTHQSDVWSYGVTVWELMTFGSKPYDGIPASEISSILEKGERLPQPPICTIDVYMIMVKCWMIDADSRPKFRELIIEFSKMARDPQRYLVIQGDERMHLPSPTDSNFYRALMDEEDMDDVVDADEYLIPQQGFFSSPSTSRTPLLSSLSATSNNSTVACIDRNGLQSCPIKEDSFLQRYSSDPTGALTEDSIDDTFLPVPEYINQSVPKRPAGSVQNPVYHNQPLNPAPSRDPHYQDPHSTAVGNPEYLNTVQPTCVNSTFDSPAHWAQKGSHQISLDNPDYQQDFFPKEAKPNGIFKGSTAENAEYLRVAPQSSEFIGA
EGFR T790M, sequence (P00533 25-1210 T790M): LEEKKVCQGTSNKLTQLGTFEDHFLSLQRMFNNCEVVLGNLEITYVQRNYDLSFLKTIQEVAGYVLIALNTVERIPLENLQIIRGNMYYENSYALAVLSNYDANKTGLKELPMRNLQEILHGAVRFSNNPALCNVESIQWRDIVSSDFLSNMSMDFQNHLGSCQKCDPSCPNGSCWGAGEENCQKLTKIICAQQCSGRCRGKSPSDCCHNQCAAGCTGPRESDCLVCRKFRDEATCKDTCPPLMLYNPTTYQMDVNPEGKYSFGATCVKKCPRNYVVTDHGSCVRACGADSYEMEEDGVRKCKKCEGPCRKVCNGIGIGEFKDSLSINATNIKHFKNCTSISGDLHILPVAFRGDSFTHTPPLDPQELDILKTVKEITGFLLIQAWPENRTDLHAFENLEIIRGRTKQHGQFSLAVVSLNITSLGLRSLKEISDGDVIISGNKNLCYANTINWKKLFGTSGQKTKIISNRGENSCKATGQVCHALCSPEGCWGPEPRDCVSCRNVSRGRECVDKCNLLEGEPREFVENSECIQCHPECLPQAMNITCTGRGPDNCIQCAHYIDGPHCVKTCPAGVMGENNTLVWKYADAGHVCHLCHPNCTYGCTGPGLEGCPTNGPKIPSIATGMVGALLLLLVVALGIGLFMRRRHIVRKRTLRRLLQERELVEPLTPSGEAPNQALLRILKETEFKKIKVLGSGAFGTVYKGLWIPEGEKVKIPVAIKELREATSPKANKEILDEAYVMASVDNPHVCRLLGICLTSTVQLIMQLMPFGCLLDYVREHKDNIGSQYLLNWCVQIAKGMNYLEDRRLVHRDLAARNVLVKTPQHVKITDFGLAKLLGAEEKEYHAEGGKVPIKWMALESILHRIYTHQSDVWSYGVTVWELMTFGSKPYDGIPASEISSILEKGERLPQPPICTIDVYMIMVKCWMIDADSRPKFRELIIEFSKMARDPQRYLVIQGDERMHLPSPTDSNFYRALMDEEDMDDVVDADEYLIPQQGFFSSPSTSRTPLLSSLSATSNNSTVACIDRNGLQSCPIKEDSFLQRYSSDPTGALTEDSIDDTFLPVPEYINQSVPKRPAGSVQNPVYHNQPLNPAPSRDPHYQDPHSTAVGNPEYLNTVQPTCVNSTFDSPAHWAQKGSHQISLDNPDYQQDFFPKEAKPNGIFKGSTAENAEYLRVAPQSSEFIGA
EGFR (d746-750), sequence (P00533 other isoform, or with tags, fused parts or gaps del 1-668/del 746-750 limits assumed): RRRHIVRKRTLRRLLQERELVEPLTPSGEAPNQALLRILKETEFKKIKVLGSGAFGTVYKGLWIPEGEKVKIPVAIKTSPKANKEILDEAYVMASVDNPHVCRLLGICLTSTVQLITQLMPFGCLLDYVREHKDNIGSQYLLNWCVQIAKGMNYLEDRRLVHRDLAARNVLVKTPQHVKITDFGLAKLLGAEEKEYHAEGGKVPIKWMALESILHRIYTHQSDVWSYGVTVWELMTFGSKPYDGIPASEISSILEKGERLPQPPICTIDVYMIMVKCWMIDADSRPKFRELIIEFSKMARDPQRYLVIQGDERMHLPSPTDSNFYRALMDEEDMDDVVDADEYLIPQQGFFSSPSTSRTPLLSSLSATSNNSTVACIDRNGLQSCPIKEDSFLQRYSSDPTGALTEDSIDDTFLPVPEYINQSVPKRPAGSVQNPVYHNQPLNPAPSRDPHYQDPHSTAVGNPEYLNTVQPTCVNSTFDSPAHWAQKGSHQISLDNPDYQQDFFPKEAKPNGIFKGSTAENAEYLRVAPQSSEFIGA
EGFR L858R, sequence (P00533 25-1210 L858R): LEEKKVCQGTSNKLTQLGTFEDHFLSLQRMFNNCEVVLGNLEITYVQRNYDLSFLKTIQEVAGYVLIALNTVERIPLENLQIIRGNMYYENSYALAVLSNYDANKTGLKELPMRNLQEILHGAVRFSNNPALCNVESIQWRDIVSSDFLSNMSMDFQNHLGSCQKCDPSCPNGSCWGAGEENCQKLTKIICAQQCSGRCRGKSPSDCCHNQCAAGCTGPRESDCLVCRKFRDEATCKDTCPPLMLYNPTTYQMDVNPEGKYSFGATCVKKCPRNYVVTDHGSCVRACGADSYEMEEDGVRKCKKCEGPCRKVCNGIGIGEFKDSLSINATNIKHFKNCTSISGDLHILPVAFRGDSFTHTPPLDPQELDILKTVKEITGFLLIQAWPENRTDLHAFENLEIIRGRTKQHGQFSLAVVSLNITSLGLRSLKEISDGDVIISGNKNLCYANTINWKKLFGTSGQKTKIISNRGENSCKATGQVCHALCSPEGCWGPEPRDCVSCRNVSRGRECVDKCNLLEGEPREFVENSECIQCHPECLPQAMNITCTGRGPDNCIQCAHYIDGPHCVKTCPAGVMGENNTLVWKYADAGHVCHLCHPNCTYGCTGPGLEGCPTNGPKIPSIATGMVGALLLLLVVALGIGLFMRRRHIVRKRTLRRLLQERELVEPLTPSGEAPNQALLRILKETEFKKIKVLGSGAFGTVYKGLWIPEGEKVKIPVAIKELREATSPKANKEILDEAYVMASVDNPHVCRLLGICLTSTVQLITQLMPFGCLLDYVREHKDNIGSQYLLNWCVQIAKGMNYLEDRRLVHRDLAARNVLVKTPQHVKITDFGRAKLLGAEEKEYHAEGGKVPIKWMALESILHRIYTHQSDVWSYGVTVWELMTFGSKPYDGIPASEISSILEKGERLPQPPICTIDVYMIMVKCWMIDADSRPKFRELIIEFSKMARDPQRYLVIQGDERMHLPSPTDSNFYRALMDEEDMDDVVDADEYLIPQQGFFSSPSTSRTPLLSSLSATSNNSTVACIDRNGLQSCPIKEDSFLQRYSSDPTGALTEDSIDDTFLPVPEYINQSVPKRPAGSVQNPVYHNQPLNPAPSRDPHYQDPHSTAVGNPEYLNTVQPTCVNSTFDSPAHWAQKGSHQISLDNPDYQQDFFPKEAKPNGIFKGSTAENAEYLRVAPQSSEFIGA

IC50 ([1]; Table 7) [nM] | Selectivity (WT/T790M) ([1]; Table 7) | IC50 ([2]; Table 7) [nM] | Selectivity WT/L858R ([2]; Table 7) | IC50 ([3]; Table 7) [nM] | Selectivity WT/d746-750 ([3]; Table 7) | IC50 ([4]; Table 7) [nM] | IC50 ([5]; Table 7) [nM] | Selectivity WT/T790M-L858R ([5]; Table 7) | Structure (SMILES) | other results
9 | 62.2 | 119 | 4.7 | 92.7 | 6.0 | 560 | 12.6 | 44.5 | C=CC(=O)Nc1cccc(Nc2nc(Nc3ccc(N4C[C@H]5CN(C(C)=O)C[C@H]5C4)cc3OC)ncc2C(F)(F)F)c1 [Compound 9-1, N-(3-((2-((4-((cis)-5-acetylhexahydropyrrolo[3,4-c]pyrrol-2(1H)-yl)-2-methoxyphenyl)amino)-5-(trifluoromethyl)pyrimidin-4-yl)amino)phenyl)acrylamide] | –
– | – | – | – | – | – | – | – | – | C=CC(=O)Nc1cccc(Nc2nc(Nc3ccc4c(c3OC)CN(C(C)=O)CC4)ncc2C(F)(F)F)c1 [Compound 17, N-(3-((2-((2-acetyl-8-methoxy-1,2,3,4-tetrahydroisoquinoline-7-yl)amino)-5-(trifluoromethyl)pyrimidin-4-yl)amino)phenyl)acrylamide] | IC50 ([1]; Table 4, unit inferred): 16 nM; Selectivity (WT/T790M) ([1]; Table 4): 85.6; IC50 ([4]; Table 4, unit inferred): 1370 nM
9.1 | 73.2 | 109 | 6.1 | 91.7 | 7.3 | 666 | 10.2 | 65.4 | C=CC(=O)Nc1cccc(Nc2nc(Nc3ccc(C4CCN(C(=O)CC)CC4)cc3OC)ncc2C(F)(F)F)c1 [Compound 24, N-(3-((2-((2-methoxy-4-(1-propionylpiperidin-4-yl)phenyl)amino)-5-(trifluoromethyl)pyrimidin-4-yl)amino)phenyl)acrylamide] | –
– | – | – | – | – | – | – | – | – | C=CC(=O)Nc1cccc(Nc2nc(Nc3ccc(OC)c4c3CN(C(C)=O)C4)ncc2C(F)(F)F)c1 [Compound 36, N-(3-((2-((2-acetyl-7-methoxyisoindolin-4-yl)amino)-5-(trifluoromethyl)pyrimidin-4-yl)amino)phenyl)acrylamide] | IC50 [6]: 7000 nM; IC50 ([7]; Homo sapiens, NCI-H1975, 72 h, 72 h, Celltiter-Glo, unit inferred): 326 nM; Selectivity (A431/H1975) ([7]; ratio of IC50): 21.5
– | – | – | – | – | – | – | – | – | C=CC(=O)Nc1cccc(Nc2nc(Nc3ccc(C4CCN(CCF)C(=O)C4)cc3OC)ncc2C(F)(F)F)c1 (stereo not shown) [Compound 23, N-(3-((2-((4-(1-(2-fluoroethyl)-2-oxopiperidin-4-yl)-2-methoxyphenyl)amino)-5-(trifluoromethyl)pyrimidin-4-yl)amino)phenyl)acrylamide] | IC50 ([1]; Table 4, unit inferred): 3.9 nM; Selectivity (WT/T790M) ([1]; Table 4): 75.4; IC50 ([4]; Table 4, unit inferred): 294 nM
7.2 | 58.8 | 82 | 5.2 | 40 | 10.6 | 423 | 5.2 | 81.3 | C=CC(=O)Nc1cccc(Nc2nc(Nc3ccc(C4CCN(C(C)=O)CC4)cc3OC)ncc2C(F)(F)F)n1 [Compound 4, N-(6-((2-((4-(1-acetylpiperidin-4-yl)-2-methoxyphenyl)amino)-5-(trifluoromethyl)pyrimidin-4-yl)amino)pyridin-2-yl)acrylamide] | IC50 ([1]; Table 3): 7.2 nM; Selectivity (WT/T790M) ([1]; Table 3): 58.8; IC50 ([4]; Table 3): 423 nM
– | – | – | – | – | – | – | – | – | C=CC(=O)Nc1cccc(Nc2nc(Nc3ccc(C4=CCN(C(C)=O)CC4)cc3OC)ncc2C(F)(F)F)c1 [Compound 3, N-(3-((2-((4-(1-acetyl-1,2,3,6-tetrahydropyridin-4-yl)-2-methoxyphenyl)amino)-5-(trifluoromethyl)pyrimidin-4-yl)amino)phenyl)acrylamide] | IC50 ([1]; Table 1): 4.7 nM; Selectivity (WT/T790M) ([1]; Table 1): 148.7; IC50 ([2]; Table 5): 154 nM; Selectivity WT/L858R ([2]; Table 5): 4.8; IC50 ([3]; Table 5): 51.4 nM; Selectivity WT/d746-750 ([3]; Table 5): 14.2; IC50 ([4]; Table 1): 699 nM; IC50 ([4]; Table 5): 733 nM; IC50 ([5]; Table 5): 6 nM; Selectivity WT/T790M-L858R ([5]; Table 5): 122.9
